From patent US6306857A, “Methods for treating or preventing alzheimer's disease using substituted 1-aryl-3-piperazin-1'-yl propanones” (Molecular Geriatrics Corporation, priority 1999, dated 2001)
Counter-ions that a name gives are not always drawn.

Tests used:
Proteus vulgaris SRI 180 = assay: agar disc diffusion assay, P. vulgaris; format: cell-based; conditions: SRI180, 240 ug/disc, about 24 hr at 37° C., Mueller-Hinton agar, read-out: Diameter of the zone of inhibition, P. vulgaris
Method: (§1) The activity of the compounds is determined using the following assay. The compound is dissolved in DMSO at a concentration of 6 mg/ml and then diluted with water to a final concentration of 3 mg/ml in 50% DMSO (% DMSO was shown not to be inhibitory to the test organisms). An aliquot (0.08 ml) of each drug solution was transferred to filter paper discs (12.7 mm diameter, Scmeicherand Schuell) for use in the agar diffusion assay. The concentration of each drug on the filter paper disc was 240 ug/disc. The test organisms included the following: Gram-positive aerobes (Staphylococcus aureus SRI 1323, Streptococcus pneumoniae SRI 1167); Gram-negative aerobe (Proteus vulgaris SRI 180); and the yeast Candida albicans SRI 523. An agar disc diffusion assay was used to evaluate the antimicrobial activity of the test compounds. Briefly, cultures were prepared from 16-20 hr agar slant cultures by inoculating in physiological saline to a turbidity equivalent to a #0.5 McFarland turbidity standard for the bacteria and a #3 McFarland standard for C. albicans. The surface of Mueller-Hinton agar (15×100 mm plates, mm) were evenly inoculated with each standardized culture using a cotton swab. Filter paper discs containing the drug concentration listed above were then placed on the inoculated agar plates along with a disc containing the solvent used to dissolve each drug. The plates were incubated at 37° C. for about 24 hr and the diameters of the zones of inhibition measured with a vernier caliper. Positive control drugs consisted of streptomycin for use with the bacterial strains and 5-fluorocytosine for use with C. albicans. The positive control drugs were assayed as described above for the compounds of the present invention using the same concentration.

[1] = system: Staphylococcus aureus SRI 1323; assay: agar disc diffusion assay, S. aureus; format: cell-based; conditions: SRI1323, 240 ug/disc, about 24 hr at 37° C., Mueller-Hinton agar, read-out: Diameter of the zone of inhibition, S. aureus
Method: as §1

Candida albicans SRI 523 = assay: agar disc diffusion assay, C. albicans; format: cell-based; conditions: SRI523, 240 ug/disc, about 24 hr at 37° C., Mueller-Hinton agar, read-out: Diameter of the zone of inhibition, C. albicans
Method: as §1

[2] = system: Streptococcus pneumoniae SRI 1167; assay: agar disc diffusion assay, S. pneumoniae; format: cell-based; conditions: 240 ug/disc, about 24 hr at 37° C.; for zone of inhibition at 240 µg/disc: Streptococcus pneumoniae, SRI1167, Mueller-Hinton agar, read-out: Diameter of the zone of inhibition, S. pneumoniae
Method: as §1

[3] = system: TG3 immunoreactivity in OKA treated MSN1a cells; assay: inhibition of TG3 immunoreactivity in OKA treated MSN1a cells (ELISA); format: cell-based, human; conditions: Homo sapiens; 1 μM OKA, 0-64 μM drug, 2 hrs at 37° C., TG3 antibody
Method: Therefore, the therapeutic activity of the compounds of the invention was assessed by the ability of these agents to affect the production of abnormally phosphorylated epitopes pertinent to the production of PHFs of AD, utilizing a human neuroblastoma cell line (MSN1a) in the presence of the protein phosphatsse inhibitor, okadaic acid (OKA).
This assay can thus be used to determine whether a drug is capable of preventing or intervening in AD by attenuating the production of abnormally phosphorylated paired helical filament epitopes associated with AD. To determine whether a drug is capable of preventing or intervening in AD activity, the MSN1a cells containing tau and associated proteins are treated with OKA capable of greatly increasing immnunoreactivity of the MSN1a cells with AD specific monoclonal antibodies. Then, either prior to or concomitantly with OKA treatment, a compound of the present invention is added to the culture. If the compound prevents the induction of the AD epitopes in the MSN1a cells treated with OKA, then it is said to have anti-AD activity. If the AD-specific antibodies are highly reactive with the neuroblastoma cells following OKA treatment in the presence of compound, then the compound is said to be ineffectual against AD.
The MSN1a human neuroblastoma line was subcloned from a population of MSN cells obtained from the laboratory of Dr. Peter Davies (Albert Einstein College of Medicine, New York, N.Y.). Cells were grown and maintained in flasks in RPMI 1640 medium, supplemented with 15% fetal calf serum, 100 U/ml penicillin, 100 U/ml Streptomycin, 0.5 ug/ml fungizone under 7.5% CO2 at 37° C.
Stock solutions of drugs were prepared by dissolving the anhydrous powders to final concentrations of either 10 or 20 mM in 50% aqueous or 100% dimethyl sulfoxide (DMSO), respectively. […]
MSN cells grown in 225 cm^2 flasks are removed from the incubator, their medium decanted and replaced with 50 ml pre-warmed KRH. […] The supernatants are discarded and the cell pellets are resuspended, the cells counted and diluted to a density of 2×10^4 cells/50 ml. […]

[4] = system: microtubule cytoskeleton of cultured human CG neuroblastoma cells; assay: Antimicrotubule activity (tubulin immunofluorescence microscopy); format: cell-based; conditions: Neuroblastoma cell, 2 hr at 37° C., 0.5% DMSO in KRH, read-out: Concentration where microtubule destabilization occurs
Method: The compounds of the invention according to formula I are effective in destabilizing microtubules, thus are useful in treating certain neoplastic diseases. Indirect immunofluorescence microscopy using the monoclonal antibodies to tubulin is used herein to determine the activity of the compounds of this invention in promoting depolymerization of the microtubule cytoskeleton in cultured cells. The following assay was employed.
Cultured human CG neuroblastoma cells were seeded 1:3 from confluent cultures onto sterile 11×22 mm coverslips in 6 well tissue culture plates 16 hr prior to treatment. The following day, the tissue culture medium is removed and the cells are exposed to various concentrations of compounds of this invention in Krebs Ringer Hepes (KRH) buffer containing a final concentration of 0.5% DMSO as carrier. Incubations were performed at 37° C. in a humidified 5% CO2 atmosphere for 2 hr. After incubation, the cells were fixed in 3% TEM grade formaldehyde in PBS for 45 min at room temperature.
To visualize the effects of the compounds of the invention on the microtubule cytoskeleton, the cells were processed for tubulin immunofluorescence. Briefly, the cells were permeabilized in 0.5% Triton-X 100 in PBS for 5 min. The cells were washed 2× with PBS and aldehydes reduced using 0.5 mg/ml NaBH4 in PBS for 5 min. Subsequently, the cells were blocked for 10 min in 1.5% BSA and 1.5% nonfat dry milk in PBS (blocking solution, BS) for 10 min. The cells were then incubated for 30 min at 37° C. with the monoclonal antibody Tu27B which recognizes b-tubulin (dilution 1:20 in BS). Subsequently, the cells were washed 2× in PBS and once in BS. The cells were then incubated for 30 min at 37° C. with sheep antimouse IgG conjugated to FITC. After incubation, the cells were washed 2× in PBS and once in BS and incubated. for 30 min at 37° C. with rabbit antisheep IgG conjugated to FITC. The cells were rinsed in PBS, counterstained with Hoechst 33285 in PBS (1 μg/ml), and rinsed in PBS. The coverslips were mounted in 9:1 glycerol:PBS containing 1 mg/ml p-phenylenediamine and sealed with nail polish.
The cells were viewed using a Jenalumar epifluorescence microscope equipped with the proper filters for Fluorescein Isothiocyanate (FITC) excitation and emission. Lack of effect of a compound is evidenced by the presence of an intact microtubule network in interphase cells, or a mitotic spindle dividing cells. Antineoplastic compounds of the invention at effective doses result in the disapperance of microtubules in both interphase and mitotic cells.

**Q.** What does the source list for `O=C(CCN1CCN(Cc2ccccc2)CC1)c1ccc(F)c(Br)c1` [Example 25, 1-(p-Fluoro-m-bromophenyl)-3-(4'-benzyl-1'-piperazinyl)-1-propanone dihydrochloride]?
**A.** zone of inhibition at 240 µg/disc (Proteus vulgaris SRI 180): 16 mm; zone of inhibition at 240 µg/disc [1]: 27.5 mm; zone of inhibition at 240 µg/disc (Candida albicans SRI 523): 26 mm; zone of inhibition at 240 µg/disc [2]: 36.3 mm

**Q.** What does the source list for `O=C(CCN1CCN(Cc2ccccc2)CC1)c1csc([N+](=O)[O-])c1` [Example 80, 1-(5"-Nitro-3"-thienyl)-3-(4'-benzyl-1'-piperazinyl)-1-propanone dihydrochloride]?
**A.** zone of inhibition at 240 µg/disc (Proteus vulgaris SRI 180): 13.8 mm; zone of inhibition at 240 µg/disc [1]: 17.2 mm; zone of inhibition at 240 µg/disc (Candida albicans SRI 523): 14.5 mm; Diameter of the zone of inhibition, S. pneumoniae (symbol) ([2]; zone too large to measure): +

**Q.** Which IC50 [3] does the source give for `O=C(CCN1CCN(C(=O)c2cccc(F)c2F)CC1)c1ccc([N+](=O)[O-])cc1` [Example 63, 1-(p-Nitrophenyl)-3-[4'-(2",3"-difluorobenzoyl)-1'-piperazinyl]-1-propanonedlhydrochlorde] here?
**A.** 7.3 µM

**Q.** With `O=C(CCN1CCN(Cc2ccccc2)CC1)c1ccc([N+](=O)[O-])cc1` [Example 5, 1-(p-Nitrophenyl)-3-(4'-benzyl-1'-piperazinyl)-1-propanone dihydrochloride] as the compound, how does the minimal effective concentration [4] read?
**A.** 4 µM

**Q.** And the zone of inhibition at 240 µg/disc (Proteus vulgaris SRI 180)?
**A.** 17.3 mm

**Q.** What about the zone of inhibition at 240 µg/disc [1] of the same compound?
**A.** 22.8 mm

**Q.** And the zone of inhibition at 240 µg/disc (Candida albicans SRI 523)?
**A.** 17.6 mm

**Q.** What about the zone of inhibition at 240 µg/disc [2] of the same compound?
**A.** 29.9 mm

**Q.** What does the source list for `O=C(CCN1CCN(C(=O)c2ccccc2C(F)(F)F)CC1)c1ccccc1F` [Example 43, 1-(o-Fluorophenyl)-3-[4'-(o-trfuoromethylbenzoyl)-1'-piperazinyl]-1-propanone hydrochloride]?
**A.** zone of inhibition at 240 µg/disc (Proteus vulgaris SRI 180): 15.9 mm; zone of inhibition at 240 µg/disc [1]: 17.7 mm; zone of inhibition at 240 µg/disc (Candida albicans SRI 523): 22.5 mm; zone of inhibition at 240 µg/disc [2]: 25.3 mm

**Q.** What does the source list for `O=C(CCN1CCN(C(c2ccccc2)c2ccc(Cl)cc2)CC1)c1ccc(Br)s1` (stereo not shown) [Example 78, 1-(5"-Bromo-2"-thienyl)-3-[4'-(1'"-p-chlorophenyl-1'"-phenylmethyl)-1'-piperazinyl]-1-propanone dihydrochloride]?
**A.** zone of inhibition at 240 µg/disc (Proteus vulgaris SRI 180): 14.5 mm; zone of inhibition at 240 µg/disc [1]: 16.2 mm; zone of inhibition at 240 µg/disc (Candida albicans SRI 523): 15.2 mm; zone of inhibition at 240 µg/disc [2]: 19.7 mm

**Q.** With `O=C(CCN1CCN(Cc2ccccc2)CC1)c1ccc(F)c2ccccc12` [Example 21, 1-(4"-Fluoronaphth-1"-yl)-3-(4'-benzyl-1'-piperazinyl)-1-propanone dihydrochloride] as the compound, how does the minimal effective concentration [4] read?
**A.** 20 µM

**Q.** What about the zone of inhibition at 240 µg/disc (Proteus vulgaris SRI 180) of the same compound?
**A.** 0 mm

**Q.** And the zone of inhibition at 240 µg/disc [1]?
**A.** 33.8 mm

**Q.** What about the zone of inhibition at 240 µg/disc (Candida albicans SRI 523) of the same compound?
**A.** 26.6 mm

**Q.** What about the zone of inhibition at 240 µg/disc [2] of the same compound?
**A.** 40.7 mm

**Q.** How did the IC50 [3] turn out when `CSc1ccc(C(=O)CCN2CCN(Cc3ccccc3)CC2)cc1` [Example 14, 1-(p-Methylthiophenyl)-3-(4'-benzyl-1'-piperazinyl)-1-propanone dihydrochloride] was run?
**A.** 5.8 µM
